Earlier results in patent US20070254070A1, “Encapsulating Plant Extracts Adsorbed and/or Absorbed in Precipitated Silica” (AXISS FRANCE S.A.S., priority 2004, published 2007).

Tested on: bacteria

With `Cc1ccc(C(C)C)cc1O` [carvacrol] as the compound, how does the action on bacteria read?
Its action on bacteria is “bactericidal”.
